Reference: patent US10295537B2, “Biorecognition elements for rapid detection of biocontamination” (The United States of America, as represented by the …, priority 2017, dated 2019)
Ends that are not written are not given here.

What was measured:
Opr86 = experiment: Solution biopanning against biotinylated Opr86 extracellular loop fragment, three rounds of selection; type: binding, P. aeruginosa; conditions: Bushnell-Haas pH 8.5 with 1% Jet-A
Procedure: Generally, solution-phase biopanning was carried out as described by the manufacturer (New England Biolabs, Ipswich, Mass.) with some modifications, including the changing of pH from 7.0 to 5.5 and 8.5 and adding 1% v/v of Jet A fuel. The first round of selection was carried out by diluting Ph.D.-7 bacteriophage library 100-fold in 0.1% Tris buffer saline plus Tween 20 (0.1% TBST) at the appropriate pH for selection plus fuel. Subsequently, the phage library was incubated with 1 μg of N-terminal biotinylated target protein fragment (OprF1: […] (SEQ. ID No. 1), OprF2: ADIKNLADFMK QYPSTSTT (SEQ. ID No. 2), Opr86: […] STP (SEQ. ID No. 3)) for 1 hr at 25° C. Phage-protein complexes were captured with 50 μL of streptavidin magnetic microbeads, unbound phages were removed, and the pellet sample washed 10-times with 1 mL of 1× Tris buffer saline (“TBS”) plus 0.05% TBST to remove weakly bound phage particles. Bound bacteriophages were eluted from the beads by lowering the pH (0.2 M Glycine-HCl, pH 2.2) while rotating gently for 10 min at 25° C. After neutralization with 1 M Tris-HCl, pH 9.1, eluted phages were amplified by infection of E. coli strain ER 2738 grown in Luria-Bertani (“LB”) broth medium until early-log phase (OD600 0.1-0.5). Titer of the amplified phage (more than 10^10 pfu/mL) was determined by infection into E. coli ER2738 and subsequent growth in selective medium containing X gal/IPTG. Amplified phages from round 1 were pre-cleared with streptavidin-coated magnetic microbeads (50 μL) to further remove non-specific binders and then used as the input phage for round 2 of selection. Enrichment of the bacteriophage pool was achieved by performing […] of selection under the appropriate pH plus jet fuel condition. Genomic DNA from individual clones was sequenced by GenScript (Piscataway, N.J.).
The particular region of the Opr86 extracellular loop of sequence […] (SEQ. ID No. 3) was chemically synthesized with a biotin capture element and used as target epitope for BRE development in solution biopanning in Bushnell-Haas, pH 8.5, supplemented with 1% Jet-A. Following the previously established procedure for OprF, several unique Opr86 peptide BREs (“OPPs”) were identified after three rounds of selection (Table 7, above).

P. stutzeri cells = experiment: Fluorometry of P. stutzeri cells labeled with peptide-QD525 conjugates; type: cell-based; conditions: emission peak at 525 nm, 1×10^9 P. stutzeri cells
Procedure: The emission peak fluorescence at 525 nm of 1×10^9 P. stutzeri cells labeled with peptide-QD525 conjugates was measured in a fluorometer and relative fluorescence units (“RFIU”) were compared (Table 6 and 7, above). Peptides OBP11 and OBP12 targeting OprF, and peptide OPP1 targeting Opr86 presented fluorescence levels that greatly surpassed the other selected peptides for the respective target. OPP1, OBP11, and OBP12 were selected for further characterization and validation.
(§1) Bacterial stocks for experimentation were prepared by harvesting overnight grown bacterial cells by centrifugation at 11000×g for 15 min (at 4° C.), washed once with 1×PBS, pH 7.2, and re-suspended in 1×PBS to a concentration of 1×10^9 cells/mL. Bacterial titers were determined by measuring optical density at 600 nm and confirmed by colony counting on LB agar plates. Cell pellets produced by centrifuging 1 mL of the 1×10^9 cells/mL stock were re-suspended in 38 μL of 1×PBS and 62 μL of 2.4 μM peptide-QD was added to a final concentration of 1.5 μM. Cells were incubated for 30 min at 25° C. Cell pellets were washed three-times with 0.5 mL PBS and re-suspended in 500 μL PBS for fluorescence assays and imaging. Dilutions ranging from 1×10^9 cells to 1×10^4 cells were prepared using standard bacteriological techniques and 0.5 mL samples were used for fluorescence measurements.
(§2) Emission spectra were obtained using Cary Eclipse Fluorimeter with excitation at 330 nm, scan rate of 120 nm/imin, and PMT voltage of 1000V. Spectra were corrected for background and dilution factor when appropriate.

[1] = biological target: biotinylated bovine serum albumin (BSA) (Bos taurus, UniProt P02769); experiment: Biopanning against biotinylated BSA to identify target-unrelated peptides; type: binding; conditions: phage displaying the peptide, round 3
Sequence of biotinylated bovine serum albumin (BSA) (P02769 25-607): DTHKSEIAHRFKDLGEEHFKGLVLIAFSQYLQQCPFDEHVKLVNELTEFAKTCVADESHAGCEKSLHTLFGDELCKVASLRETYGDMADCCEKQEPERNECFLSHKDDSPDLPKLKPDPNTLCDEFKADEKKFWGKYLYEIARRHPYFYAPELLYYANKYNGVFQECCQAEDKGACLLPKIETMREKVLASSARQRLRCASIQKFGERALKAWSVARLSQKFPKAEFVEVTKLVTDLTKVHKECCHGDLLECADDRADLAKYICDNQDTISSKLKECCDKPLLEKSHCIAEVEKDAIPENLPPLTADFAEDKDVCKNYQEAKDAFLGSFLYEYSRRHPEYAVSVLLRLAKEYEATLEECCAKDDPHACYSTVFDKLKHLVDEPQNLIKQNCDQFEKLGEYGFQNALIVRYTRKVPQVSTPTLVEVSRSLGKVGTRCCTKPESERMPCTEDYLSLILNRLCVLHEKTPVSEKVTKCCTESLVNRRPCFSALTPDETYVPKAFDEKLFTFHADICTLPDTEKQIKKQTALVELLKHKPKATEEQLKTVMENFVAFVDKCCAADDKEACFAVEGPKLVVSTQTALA
Excerpt: The phage library was then screened to identify target-unrelated peptides by using biotinylated bovine serum albumin (“BSA”) as a target for biopanning.

[2] = system: Gram negative (P. stutzeri, P. alkaligenes, P. aeruginosa, A. venetianus) and Gram positive (Arthrobacter sp., Lynsinibacillus sp.) bacteria; experiment: Fluorescence microscopy of fuel degrading bacteria labeled with peptide BRE-QD545; type: cell-based; conditions: 1×10^9 cells, QD545, 1.5 μM
Procedure: (§3) To characterize the specificity of the peptide BRE-QD545 conjugates for the intended bacterial groups, fluorescence imaging and fluorometric analysis were performed using different Gram negative and Gram positive fuel degrading bacteria. As such, cultures comprising 1×10^9 cells of Gram negative bacteria (P. stutzeri, P. alkaligenes, P. aeruginosa and A. venetianus) and Gram positive bacteria (Arthrobacter sp. and Lynsinibacillus sp.) were labeled with OPP1, OBP11 and OBP12 biofunctionalized QD545 and visualized using fluorescence microscopy (FIGS. 5-10) and the fluorescence quantified using a fluorometer (FIG. 11).
as §1
10 μL of the prepared sample was placed on a microscope slide, covered with a coverslip, and visualized on an Nikon Eclipse Ti-E inverted microscope equipped with X-Cite LED lamp, a fluorescence filter set (a bandpass exciter 405 nm and a longpass emission filter), a 1.25-numerical-aperture oil-immersion objective (DPlan 100×, Nikon). Images were captured by Nikon DS-sCMOS camera.

[3] = system: Gram negative bacteria (A. venetianus and Pseudomonas spp.); experiment: Fluorometry of fuel degrading bacteria labeled with peptide-QD545 conjugates (FIG. 11); type: cell-based; conditions: for detection of Gram negative bacteria by fluorometer: 1×10^9 cells, QD545 conjugates, FIG. 11
Procedure: as §3, §1, §2

P. stutzeri = experiment: Detection of bacteria recovered from spiked 1 L Jet A fuel with peptide-QD545 (LOD, fluorescence); type: cell-based; conditions: for LOD (CFU) / Fluorescence (RFU): 1 L Jet A; for LOD (CFU): 1.5 μM peptide-QD; for detection possible down to, in some instances: below reproducible LOD; for Fluorescence (RFU): at LOD
Procedure: (§4) To test the applicability of the peptide BRE-QD chemistry in the detection of bacteria in fuel and characterize the LOD in such system, bacterial cells from 1 L jet fuel samples spiked with different levels of bacteria were recovered, labeled, and detected.
(§5) One liter Jet A fuel samples were amended with 1 mL of 1×PBS containing either A. venetianus ATCC 31012 or P. stutzeri at the appropriate test concentration was added to 1 L of Jet A fuel. The inoculated jet fuel samples were thoroughly mixed by vortex for 1 min and allowed to stand for 20 min to 30 min. To recover the cells, 1 mL of 1×PBS, named bacterial recovery solution (“BRS”), was added to the jet fuel samples, the samples shaken by hand, allowed stand for 5 min, and, then, 1 mL of the aqueous phase was collected using a long serological pipette. The 1 mL of solution with bacteria was centrifuged for 5 min at 11000×g, and washed three times with 1 mL of 1×PBS. Bacterial pellets were individually labeled using a final concentration 1.5 μM peptide-QD. The LOD was defined as the lowest concentration level that could be determined to be statistically different from QD labeled cells from the results of multiple testers. The actual cell level (colony-forming units, “CFU”) detected was determined by plating a portion of the sample after being subjected to the labeled procedure.
(§6) Cells in the 1 L of fuel were recovered with 1 mL of BRS. Efficient labeling of the bacteria was indicated by high levels of fluorescence detected from the cell wall by fluorescence microscopy (FIG. 13 and Table 10, below). FIG. 14 is a similar image but of fungus (Hormoconis) labeled by peptide-QD605. The LOD was reliably determined from assays performed by multiple testers.

A. venetianus ATCC 31012 = experiment: as above; type: cell-based; conditions: for LOD (CFU): 1.5 μM peptide-QD; for detection possible down to, in some instances: below reproducible LOD
Procedure: as §4, §5, §6

I I T M K R R (IITMKRR; Artificial sequence obtained through biopanning.) [OPP5, Opr86 peptide BRE]
% Abundance (Opr86): 3% | Fluorescence (RFU) (P. stutzeri cells): 4408 ± 225 RFU

IQTNPTM (Artificial sequence obtained through biopanning.)
cross-reaction with BSA [1]: cross-react with BSA

L P S T I H R (LPSTIHR; Artificial sequence obtained through biopanning.) [OPP3, Opr86 peptide BRE]
% Abundance (Opr86): 2% | Fluorescence (RFU) (P. stutzeri cells): 2251 ± 63 RFU

L R P L M N R (LRPLMNR; Artificial sequence obtained through biopanning.) [OPP4, Opr86 peptide BRE]
% Abundance (Opr86): 3% | Fluorescence (RFU) (P. stutzeri cells): 1383 ± 74 RFU

M H N L N L L (MHNLNLL; Artificial sequence obtained through biopanning.) [OPP2, Opr86 peptide BRE]
% Abundance (Opr86): 2% | Fluorescence (RFU) (P. stutzeri cells): 1847 ± 52 RFU

NMTNPPP (Artificial sequence obtained through biopanning.) [OBP6]
Fluorescence (RFU) (P. stutzeri cells): 2080 ± 280 RFU

P R I R K S H (PRIRKSH; Artificial sequence obtained through biopanning.) [OPP1, Opr86 peptide BRE]
labeling of bacteria in fluorescence micrographs [2]: specifically labeled Gram negative bacteria but not the Gram positive bacteria | % Abundance (Opr86): 3% | Fluorescence (RFU) (P. stutzeri cells): 12258 ± 2060 RFU

PIKTNRK (Artificial sequence obtained through biopanning.) [OBP11]
labeling of bacteria in fluorescence micrographs [2]: specifically labeled Gram negative bacteria but not the Gram positive bacteria | Fluorescence (RFU) (P. stutzeri cells): 5308 ± 501 RFU | detection of Gram negative bacteria by fluorometer [3]: able to detect all Gram negative bacteria tested

PKRTPRH (Artificial sequence obtained through biopanning.) [OBP12]
labeling of bacteria in fluorescence micrographs [2]: specifically labeled Gram negative bacteria but not the Gram positive bacteria | Fluorescence (RFU) (P. stutzeri cells): 6443 ± 957 RFU | detection of Gram negative bacteria by fluorometer [3]: able to detect all Gram negative bacteria tested | LOD of P. stutzeri compared among all the BREs ([3]; P. stutzeri): highest LOD

QD545-OBP11: peptide OBP11 conjugated to quantum dot QD545 (PIKTNRK; also: conjugated to quantum dot QD545)
LOD (P. stutzeri): 5×10^5 CFU/mL of BRS | LOD (CFU) (P. stutzeri): 5 × 10^5 CFU | detection possible down to, in some instances (P. stutzeri): 5×10^4 CFU/mL of BRS | LOD (A. venetianus ATCC 31012): 5×10^5 CFU/mL of BRS | LOD (CFU) (A. venetianus ATCC 31012; 1 L Jet A): 5 × 10^5 CFU | detection possible down to, in some instances (A. venetianus ATCC 31012): 5×10^4 CFU/mL of BRS

QD545-OBP12: peptide OBP12 conjugated to quantum dot QD545 (PKRTPRH; also: conjugated to quantum dot QD545)
LOD (P. stutzeri): 5×10^5 CFU/mL of BRS | LOD (CFU) (P. stutzeri): 5 × 10^5 CFU | Fluorescence (RFU) (P. stutzeri): 12,205 RFU | detection possible down to, in some instances (P. stutzeri): 5×10^4 CFU/mL of BRS | LOD (A. venetianus ATCC 31012): 5×10^5 CFU/mL of BRS | LOD (CFU) (A. venetianus ATCC 31012; 1 L Jet A): 5 × 10^5 CFU | detection possible down to, in some instances (A. venetianus ATCC 31012): 5×10^4 CFU/mL of BRS

QD545-OPP1: peptide OPP1 conjugated to quantum dot QD545 (PRIRKSH; also: conjugated to quantum dot QD545)
detection of Gram negative bacteria by fluorometer [3]: high fluorescence levels with all Gram negative bacteria tested | LOD (P. stutzeri): 5×10^4 CFU/mL of BRS | LOD (CFU) (P. stutzeri): 5 × 10^5 CFU | Fluorescence (RFU) (P. stutzeri): 820 RFU | detection possible down to, in some instances (P. stutzeri): 5×10^3 CFU/mL of BRS | LOD (A. venetianus ATCC 31012): 5×10^4 CFU/mL of BRS | LOD (CFU) (A. venetianus ATCC 31012; 1 L Jet A): 5 × 10^5 CFU | Fluorescence (RFU) (A. venetianus ATCC 31012; 1 L Jet A, at LOD): 773 RFU | detection possible down to, in some instances (A. venetianus ATCC 31012): 5×10^3 CFU/mL of BRS

QITLRST (Artificial sequence obtained through biopanning.) [OBP7]
Fluorescence (RFU) (P. stutzeri cells): 2625 ± 543 RFU

QMLLRLP (Artificial sequence obtained through biopanning.) [OBP9]
Fluorescence (RFU) (P. stutzeri cells): 3338 ± 590 RFU

R K K S R I R (RKKSRIR; Artificial sequence obtained through biopanning.) [OPP6, Opr86 peptide BRE]
% Abundance (Opr86): 2% | Fluorescence (RFU) (P. stutzeri cells): 4126 ± 98 RFU

RRSNSQL (Artificial sequence obtained through biopanning.) [OBP4]
Fluorescence (RFU) (P. stutzeri cells): 4520 ± 473 RFU
